Assays:
PAMPA-BBB permeability = assay: PAMPA-BBB permeability
Text: (§1) The parallel artificial membrane permeability assay uses 96-well plate in a “sandwich” type system, where one plate overlaps the other (PAMPA). […] The lipid mixture that impregnates the PVDF filter has a different constitution for the permeability tests for the blood-brain barrier (Brain lipid from pig extract in dodecane) and gastro-intestinal tract (L-α soy phosphatidylcholine in dodecane). In the PAMPA BBB and TGI assays, the optical density values obtained in the reading at each selected wavelength, for each of the compounds were analyzed in comparison with the values of several controls. In the case of the BBB, these values were used to elaborate an equation and determine the permeability coefficient (Pe), using a previously elaborated spreadsheet, and, for the TGI, these values were used to determine the absorbed fraction (Fa%), both using the Excel® program.

spleen cells = assay: Cytotoxicity against spleen cells (propidium iodide); conditions: Mus musculus, 24 h
Procedure: To carry out the suspension preparation of spleen cells, BALB/c mice were euthanized, and an incision was made to remove the spleen. The spleens were macerated using the end of the plungers from a 1 mL syringe in a 70 μm strainer placed in a Petri dish containing RPMI medium. […] After incubation for 4 min at room temperature, the cells were washed with RPMI medium. Subsequently, samples from three animals were pooled and the cell suspension was passed through a 40 μm strainer. Cells were counted in a Neubauer chamber and splenocytes were plated at a concentration of 5 x 10^5 cells per well in a 96-well culture plate. […] Moreover, spleen cells were also cultured just with medium (free of compounds or vehicle) or with DMSO 0.1%. […] After, the propidium iodide incorporation was performed according to the instructions of the Propidium Iodide Kit (Sigma, Copenhagen, Denmark). The splenocytes were analyzed in a FACS Canto II flow cytometer. The data files were saved using FACS Diva software and data analysis was done using Flow Jo software. […] Data obtained from experiments were expressed as the mean ± standard error of the mean (S.E.M.) of spleen died cells and statistical differences between the treated and the vehicle groups of experiments were evaluated by ANOVA and Dunnett hoc tests.

Microsomal metabolism = format: in vitro ADME; conditions: rat liver microsomes
Procedure: The study of the microsomal metabolism of the compounds was evaluated by placing 1 mg/ml rat liver microsome in a microcentrifuge tube, in the presence of a NADPH generator system (1 mM NADP^+, 1.5 mM MgCl2, 3.5 mM glucose-6-phosphate and 0.5 U/mL glucose-6-phosphate dehydrogenase) and phosphate buffer pH 7.4 in sufficient quantity for 250 μL. After 15 minutes of pre-incubation at 37°C in a water bath, the enzymatic reactions were started by adding 2 μL of a stock solution 1 mM from one of the prototypes (500 μL 20% DMSO 80% CH3CN), so that a final concentration of 5 μM was reached (0.2% DMSO, 0.8% acetonitrile).
Then, the samples were again incubated at 37°C under agitation for predetermined and fixed periods (0, 15, 30, 45 and 60 minutes). At the end of the incubation period 500 μL of cold methanol and 500 μL of cold acetonitrile containing 5 μM of methyl 1,1’biphenyl-4-carboxylate 5 μM (internal standard) were added to the wells to stop the reaction and the samples were homogenized and kept in an ice bath to accelerate protein precipitation. The mixture was centrifuged at 24500 x g for 15 minutes at 4°C (Universal centrifuge 320R Hettich®). Finally, the supernatant (1 mL) was filtrated and placed in vials to be analyzed by HPLC-PDA, Shimadzu—LC20AD, Kromasil C-18 column (4.6 mm x 250 mm, 5 μm), SPD M20A diode array detector, flow 1 mL/min, mobile phase acetonitrile: water 1:1 (v/v) for LASSBio-1491 and acetonitrile: water 60:40 (v/v) for LASSBio-1736, 20 minutes at 254 nm wavelength. Then, the microsomal half-life and clearance were calculated.

[1] = tested on: L. major promastigote LV39 substrain; assay: In vitro activity against promastigotes, LV39; format: cell-based; conditions: Leishmania major
Procedure: L. major promastigotes LV39 (MRHO/SU/59/P) were obtained from João […] Preto Medical School- USP. L. major IOC/[…] promastigotes (MHOM/SU/1973/5-ASKH) were obtained from Leishmania collection of the Oswaldo Cruz Institute-Fiocruz. L. major promastigotes LV39 (MRHO/SU/59/P) and L. major IOC/[…] (MHOM/SU/1973/5-ASKH) were grown in a Schneider's medium (Sigma-Aldrich, St. […] The determination of the leishmanicidal activity of LASSBio-1491 against L. major promastigotes was carried out according to the methodology described by […] and colleagues (1996). […] After 48h of incubation in a Biochemical Oxygen Demand (B.O.D.) incubator, the promastigotes were counted using a hemocytometer. The results obtained were expressed as the mean ± S.E.M. of the number of promastigotes from triplicate cultures of representative assays, with the data analyzed by ANOVA and Dunnett hoc tests, considering a significance level of p < 0.05.

PAMPA-GIT permeability = assay: PAMPA-GIT permeability
Text: as §1

[2] = tested on: L. major amastigote LV39 substrain; assay: In vitro activity against intramacrophage amastigotes, LV39; format: cell-based; conditions: Leishmania major
Procedure: Briefly, female BALB/c mice (6 to 8 weeks old) received 1 mL sterile of 3% sodium thioglycolate by intraperitoneal route (i.p.) and were euthanized after 4 days. The intraperitoneal lavage was collected from the peritoneal cavity of mice using sterile PBS and cells were counted in a hemocytometer. Peritoneal adherent cells (macrophages) were plated at a concentration of 2 x 10^5 cells per well in 24-well culture plates containing glass coverslips. Subsequently, L. major promastigotes (harvested after the third passage) were added at a concentration of 2 x 10^6 parasites per well, aiming to infect the macrophages. […] After 24 hours in an incubator at 37 °C and 5% CO2, the coverslips were washed with PBS and stained with Giemsa-May Grünwald. The number of amastigotes in 100 macrophages was determined by counting using optical microscope (100x objective). Furthermore, the cell culture supernatant was also collected for nitrite measurement using the Griess reaction, an indirect way of determining the concentration of nitric oxide in the supernatant of infected macrophages from the experimental groups. The results obtained were expressed as the mean ± S.E.M. of the number of amastigotes or nitrite concentration from duplicate cultures of representative assays, with the data analyzed by ANOVA and Dunnett hoc tests, considering a significance level of p < 0.05. In addition, the linear regression analysis from the Kc values at employed concentrations was used to determine the IC50.

O=C(N/N=C/c1ccc([N+](=O)[O-])o1)NNC(=O)c1ccc(Cl)cc1 [LASSBio-1491]
Papp (PAMPA-BBB permeability; PAMPA): 2.96 ×10⁻⁶ cm/s | Classification (PAMPA-BBB permeability; PAMPA-BBB): CNS+/- | IC50 (spleen cells): > 100 µM | half-life at 5 μM (Microsomal metabolism; pH 7.4, with co-factor): 2.68 h | microsomal CLint at 5 μM (Microsomal metabolism; pH 7.4, with co-factor, Volume x (0,693/t1/2)): 1.07 µL/min/mg | Metabolism rate with co-factor (Microsomal metabolism; with NADPH regenerating system): 25.46% | Elimination rate constant (k) (Microsomal metabolism; with co-factor): 0.0043 | Clapp (Microsomal metabolism; with co-factor, scaled to liver and rat weight): 0.166 mL/min/kg | IC50 ([1]; promastigote LV39, 48 h): 7.7 ± 0.1 µM | Emax ([1]; promastigote LV39, read-out: Maximum effect (% ± S.E.M.)): 68.3 ± 0.2% | Classification (PAMPA-GIT permeability; GIT-PAMPA): High (high intestinal permeability (70–100%)) | Fa experimental (PAMPA-GIT permeability; GIT-PAMPA, absorbed fraction): 78.8% | Papp (PAMPA-GIT permeability; PAMPA): 4.08 ×10⁻⁶ cm/s | IC50 ([2]; Macrophage, amastigote LV39 in macrophages, 24 h): 8.3 ± 0.3 µM | Emax ([2]; amastigote LV39, read-out: Maximum effect (% ± S.E.M.)): 60.2 ± 1.9%

Source: article PMC9170106, “Pre-clinical evaluation of LASSBio-1491: From in vitro pharmacokinetic study to in vivo leishmanicidal activity” (PLoS ONE, 2022)
